Measurements published in patent US11492335B2, “Aryl or heteroaryl triazolone derivatives or salts thereof, or pharmaceutical compositions comprising the same” (YUHAN CORPORATION, priority 2018, dated 2022).
Structures can show the parent of a compound that is named as a salt.

Tests used:
Format in all cases: biochemical
[1] = molecular target: T1, recombinant human VAP-1 (Homo sapiens, UniProt Q16853); experiment: Activity on recombinant human VAP-1, Amplex Red HRP-coupled hydrogen peroxide assay, benzylamine substrate; settings: recombinant human VAP-1, benzylamine substrate, 30 min preincubation at 37° C.; read-out: Inhibitory Activity (IC50, nM) human VAP-1
T1 construct: purchased R&D systems
T1 sequence (Q16853 1-763): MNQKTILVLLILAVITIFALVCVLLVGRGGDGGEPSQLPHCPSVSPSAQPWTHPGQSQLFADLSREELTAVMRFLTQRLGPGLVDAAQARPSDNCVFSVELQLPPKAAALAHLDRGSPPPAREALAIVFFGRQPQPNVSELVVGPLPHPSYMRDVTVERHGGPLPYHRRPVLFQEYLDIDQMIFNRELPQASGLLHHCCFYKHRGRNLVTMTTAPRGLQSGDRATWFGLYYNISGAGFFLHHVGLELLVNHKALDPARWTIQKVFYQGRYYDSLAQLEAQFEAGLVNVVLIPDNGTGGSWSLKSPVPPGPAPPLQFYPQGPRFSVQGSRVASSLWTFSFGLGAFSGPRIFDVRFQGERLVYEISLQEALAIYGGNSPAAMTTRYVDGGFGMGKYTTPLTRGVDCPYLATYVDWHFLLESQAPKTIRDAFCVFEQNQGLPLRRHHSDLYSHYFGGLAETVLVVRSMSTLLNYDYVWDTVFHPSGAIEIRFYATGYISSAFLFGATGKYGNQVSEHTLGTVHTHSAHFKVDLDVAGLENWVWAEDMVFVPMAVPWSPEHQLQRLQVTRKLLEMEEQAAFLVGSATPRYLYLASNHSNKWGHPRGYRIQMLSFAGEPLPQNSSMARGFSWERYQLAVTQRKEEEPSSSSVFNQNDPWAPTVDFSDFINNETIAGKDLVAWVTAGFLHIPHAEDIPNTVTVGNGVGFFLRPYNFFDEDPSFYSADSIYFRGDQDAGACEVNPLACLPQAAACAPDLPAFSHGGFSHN
In short: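 Fluorescence of resorufin formed from H2O2 (ex 544 nm, em 590 nm) was tracked for 1-2 h after adding 1 mM benzylamine, 200 uM Amplex Red and 1 U/mL HRP to enzyme pretreated with compound for 30 min at 37 °C. IC50 values derive from four-variable logistic fits.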

[2] = molecular target: T2, recombinant human MAO-A (monoamine oxidase-A) (Homo sapiens, UniProt P21397); experiment: Activity on recombinant human MAO-A, Amplex Red method, 0.5 mM tyramine substrate; settings: 0.5 mM tyramine, read-out: Inhibitory Activity (IC50, nM) MAO-A
T2 construct: purchased Sigma-Aldrich
T2 sequence (P21397 1-527): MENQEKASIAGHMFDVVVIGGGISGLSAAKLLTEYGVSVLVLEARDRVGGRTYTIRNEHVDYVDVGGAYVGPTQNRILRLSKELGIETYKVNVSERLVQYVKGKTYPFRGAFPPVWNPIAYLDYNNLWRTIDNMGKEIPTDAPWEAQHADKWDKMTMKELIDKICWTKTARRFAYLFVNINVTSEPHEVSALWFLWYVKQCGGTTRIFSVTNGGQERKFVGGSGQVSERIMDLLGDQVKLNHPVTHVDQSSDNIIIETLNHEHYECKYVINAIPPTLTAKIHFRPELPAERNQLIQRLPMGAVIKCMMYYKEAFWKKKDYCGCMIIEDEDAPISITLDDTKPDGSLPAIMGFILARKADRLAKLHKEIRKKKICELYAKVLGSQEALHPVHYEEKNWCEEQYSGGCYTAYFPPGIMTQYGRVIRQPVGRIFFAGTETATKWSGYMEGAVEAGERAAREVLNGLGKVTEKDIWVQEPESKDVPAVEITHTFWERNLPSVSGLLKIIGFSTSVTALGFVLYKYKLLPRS
In short: (§1)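 Fluorescence (544/590 nm) of resorufin formed from Amplex Red by HRP and enzyme-generated H2O2 was followed over 1-2 h. Substrates were 0.5 mM tyramine for MAO-A and 1 mM benzylamine for MAO-B; compounds were preincubated with enzyme for 30 min at 37° C. IC50 came from four-parameter logistic fitting of signal-rate inhibition.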

[3] = molecular target: T3, recombinant human MAO-B (monoamine oxidase-B) (Homo sapiens, UniProt P27338); experiment: Activity on recombinant human MAO-B, Amplex Red method, 1 mM benzylamine substrate; settings: 1 mM benzylamine, read-out: Inhibitory Activity (IC50, nM) MAO-B
T3 construct: purchased Sigma-Aldrich
T3 sequence (P27338 1-520): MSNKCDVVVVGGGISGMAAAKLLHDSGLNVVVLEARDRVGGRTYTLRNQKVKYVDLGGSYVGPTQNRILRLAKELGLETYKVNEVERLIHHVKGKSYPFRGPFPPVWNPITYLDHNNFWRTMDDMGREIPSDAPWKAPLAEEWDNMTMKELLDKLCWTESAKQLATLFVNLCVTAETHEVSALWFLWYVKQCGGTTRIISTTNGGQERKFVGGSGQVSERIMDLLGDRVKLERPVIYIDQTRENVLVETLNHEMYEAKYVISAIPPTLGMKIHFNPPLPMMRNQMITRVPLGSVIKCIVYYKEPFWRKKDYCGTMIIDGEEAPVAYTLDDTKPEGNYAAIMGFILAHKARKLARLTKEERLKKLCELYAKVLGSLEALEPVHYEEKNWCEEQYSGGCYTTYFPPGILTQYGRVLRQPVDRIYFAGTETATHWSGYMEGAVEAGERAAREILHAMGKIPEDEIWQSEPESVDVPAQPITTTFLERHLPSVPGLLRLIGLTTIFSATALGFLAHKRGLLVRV
In short: as §1

[4] = molecular target: T4, recombinant human DAO (diamine oxidase) (Homo sapiens, UniProt P19801); experiment: Activity on recombinant human DAO, Amplex Red method, 1 mM putrescine substrate; settings: recombinant human DAO, 1 mM putrescine; * = between 10 and 100 nM, ** = between 300 and 1000 nM; read-out: Inhibitory Activity (IC50, nM) DAO
T4 construct: purchased R&D systems
T4 sequence (P19801 20-751): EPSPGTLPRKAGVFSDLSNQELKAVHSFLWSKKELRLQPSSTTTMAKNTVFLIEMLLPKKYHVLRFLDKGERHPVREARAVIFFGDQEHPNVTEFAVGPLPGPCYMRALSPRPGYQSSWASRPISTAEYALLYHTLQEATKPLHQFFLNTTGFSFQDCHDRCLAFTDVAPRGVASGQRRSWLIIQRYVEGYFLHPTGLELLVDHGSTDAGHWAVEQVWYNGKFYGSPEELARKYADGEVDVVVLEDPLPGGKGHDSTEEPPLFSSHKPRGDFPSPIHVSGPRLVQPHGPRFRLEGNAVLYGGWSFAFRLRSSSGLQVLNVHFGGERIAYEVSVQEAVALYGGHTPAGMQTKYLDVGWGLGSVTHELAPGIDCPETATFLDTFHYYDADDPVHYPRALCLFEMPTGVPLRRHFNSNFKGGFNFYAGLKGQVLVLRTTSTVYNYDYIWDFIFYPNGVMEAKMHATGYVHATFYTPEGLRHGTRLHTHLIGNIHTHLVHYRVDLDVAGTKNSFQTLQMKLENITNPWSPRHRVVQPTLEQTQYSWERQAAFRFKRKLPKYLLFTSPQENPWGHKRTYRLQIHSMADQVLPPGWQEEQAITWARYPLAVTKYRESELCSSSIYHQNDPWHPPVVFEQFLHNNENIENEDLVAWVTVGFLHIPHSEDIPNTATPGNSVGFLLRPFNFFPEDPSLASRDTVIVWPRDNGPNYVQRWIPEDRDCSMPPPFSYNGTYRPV
In short: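 Inhibition of recombinant human DAO (diamine oxidase, R&D systems) was assessed with the Amplex Red Hydrogen Peroxide Assay Kit. Hydrogen peroxide produced from 1 mM putrescine was detected through an HRP-coupled reaction that converts Amplex Red into fluorescent resorufin, read at 544 nm excitation and 590 nm emission. IC50 values came from four-parameter logistic fits in GraphPad Prism.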

IC50 [1] [nM] | IC50 [2] [nM] | IC50 [3] [nM] | IC50 [4] [nM] | SMILES
0.62 | > 100000 | 1800 | < 10 | NC/C(=C\F)Cn1ncn(-c2cccc(-c3ccc(Cl)nc3)c2)c1=O [Example 85, 2-[(2E)-2-(aminomethyl)-3-fluoroprop-2-en-1-yl]-4-[3-(6-chloropyridin-3-yl)phenyl]-2,4-dihydro-3H-1,2,4-triazol-3-one hydrochloride]
0.62 | > 100000 | 1230 | < 100 | NC/C(=C\F)Cn1ncn(-c2cccc(-c3ccc(N4CCOCC4)nc3)c2)c1=O [Example 86, 2-[(2E)-2-(aminomethyl)-3-fluoroprop-2-en-1-yl]-4-{3-[6-(morpholin-4-yl)pyridin-3-yl]phenyl}-2,4-dihydro-3H-1,2,4-triazol-3-one hydrochloride]
1 | > 100000 | 22 | < 100 | COc1ncc(-c2cccc(-n3cnn(C/C(=C/F)CN)c3=O)c2)cc1C(F)(F)F [Example 87, 2-[(2E)-2-(aminomethyl)-3-fluoroprop-2-en-1-yl]-4-{3-[6-methoxy-5-(trifluoromethyl)pyridin-3-yl]phenyl}-2,4-dihydro-3H-1,2,4-triazol-3-one hydrochloride]
1.1 | > 100000 | 9600 | < 10 | NC/C(=C\F)Cn1ncn(-c2cccc(-c3cnc(O)c(C(F)(F)F)c3)c2)c1=O [Example 88, 2-[(2E)-2-(aminomethyl)-3-fluoroprop-2-en-1-yl]-4-{3-[6-hydroxy-5-(trifluoromethyl)pyridin-3-yl]phenyl}-2,4-dihydro-3H-1,2,4-triazol-3-one hydrochloride]
0.6 | > 100000 | > 10000 | 4.7 | Cc1cc(-c2cccc(-n3cnn(C/C(=C/F)CN)c3=O)c2)cn(C)c1=O [Example 89, 5-(3-{1-[(2E)-2-(aminomethyl)-3-fluoroprop-2-en-1-yl]-5-oxo-1,5-dihydro-4H-1,2,4-triazol-4-yl}phenyl)-1,3-dimethylpyridin-2(1H)-one hydrochloride]
1.4 | > 100000 | > 10000 | 19 | CC(C)n1cc(-c2cccc(-n3cnn(C/C(=C/F)CN)c3=O)c2)ccc1=O [Example 90, 5-(3-{1-[(2E)-2-(aminomethyl)-3-fluoroprop-2-en-1-yl]-5-oxo-1,5-dihydro-4H-1,2,4-triazol-4-yl}phenyl)-1-(propan-2-yl)pyridin-2(1H)-one hydrochloride]
1.1 | 9.69 | 1350 | 41 | NC/C(=C/F)Cn1ncn(-c2cccc(-c3ccc4c(c3)OCO4)c2)c1=O [Example 92, 2-[(2Z)-2-(aminomethyl)-3-fluoroprop-2-en-1-yl]-4-[3-(1,3-benzodioxol-5-yl)phenyl]-2,4-dihydro-3H-1,2,4-triazol-3-one hydrochloride]
0.48 | > 10000 | 221 | < 100 | NC/C(=C\F)Cn1ncn(-c2cccc(-c3ccc4c(c3)OCO4)c2)c1=O [Example 93, 2-[(2E)-2-(aminomethyl)-3-fluoroprop-2-en-1-yl]-4-[3-(1,3-benzodioxol-5-yl)phenyl]-2,4-dihydro-3H-1,2,4-triazol-3-one hydrochloride]
2 | > 100000 | 2630 | 120 | NC/C(=C/F)Cn1ncn(-c2cccc(-c3ccc4c(c3)OCCO4)c2)c1=O [Example 94, 2-[(2Z)-2-(aminomethyl)-3-fluoroprop-2-en-1-yl]-4-[3-(2,3-dihydro-1,4-benzodioxin-6-yl)phenyl]-2,4-dihydro-3H-1,2,4-triazol-3-one hydrochloride]
0.69 | > 100000 | 1460 | 37 | NC/C(=C\F)Cn1ncn(-c2cccc(-c3ccc4c(c3)OCCO4)c2)c1=O [Example 95, 2-[(2E)-2-(aminomethyl)-3-fluoroprop-2-en-1-yl]-4-[3-(2,3-dihydro-1,4-benzodioxin-6-yl)phenyl]-2,4-dihydro-3H-1,2,4-triazol-3-one hydrochloride]
0.51 | > 100000 | 390 | < 100 | NC/C(=C\F)Cn1ncn(-c2cccc(-c3ccc4nonc4c3)c2)c1=O [Example 96, 2-[(2E)-2-(aminomethyl)-3-fluoroprop-2-en-1-yl]-4-[3-(2,1,3-benzooxadiazol-5-yl)phenyl]-2,4-dihydro-3H-1,2,4-triazol-3-one hydrochloride]
0.68 | 22500 | > 10000 | < 30 | NC/C(=C\F)Cn1ncn(-c2cccc(-c3ccc4cn[nH]c4c3)c2)c1=O [Example 97, 2-[(2E)-2-(aminomethyl)-3-fluoroprop-2-en-1-yl]-4-[3-(1H-indazol-6-yl)phenyl]-2,4-dihydro-3H-1,2,4-triazol-3-one hydrochloride]
